Species on record: Oryctolagus cuniculus
Assay: Evaluation of vasodilatory activity in Isolated rabbit aorta strips
Assay type: functional

Row | IC50 [µM] | Structure (SMILES)
1 | 7 | CC/C(=C\C(=O)C(N)=O)C(C)[N+](=O)[O-] (configuration not stated)
2 | 0.15 | CC/C(=C\C(=N/O)C(N)=O)C(C)[N+](=O)[O-] (configuration not stated)
